Assay results as given in BindingDB's records for doi:10.1021/acsmedchemlett.8b00149 (Merck, 2018).

Target: Free fatty acid receptor 1 (Homo sapiens, UniProt O14842)
Test: Agonist activity at recombinant human GPR40 expressed in HEK293 cells assessed as increase in IP1 accumulation measured after 60 mins by HTRF assay

Sequence of Free fatty acid receptor 1 (O14842 whole entry): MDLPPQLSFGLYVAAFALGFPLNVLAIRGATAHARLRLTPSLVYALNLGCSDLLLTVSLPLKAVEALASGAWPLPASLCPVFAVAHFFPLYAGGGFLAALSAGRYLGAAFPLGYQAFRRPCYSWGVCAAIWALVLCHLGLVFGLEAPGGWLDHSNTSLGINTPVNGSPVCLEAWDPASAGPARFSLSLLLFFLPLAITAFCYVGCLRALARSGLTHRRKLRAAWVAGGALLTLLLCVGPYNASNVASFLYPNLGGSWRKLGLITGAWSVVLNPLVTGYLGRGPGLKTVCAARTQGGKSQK

SMILES: COc1cc(-c2cnc(C3CCc4ccc([C@H](C5CC5)[C@H](C)C(=O)O)cc4O3)c(F)c2)c(F)cn1 (stereo partly specified)
- EC50: 1.6 nM
